Data: publication PMC5998989 (Pain Medicine: The Official Journal of the American Academy …, 2017)
“And” between values parts separate entries of the source, which are not always exact repeats. Equal values may be shown once.

Assays:
[1] = test system: cannabinoid receptors / TRPV1 receptors; conditions: cited from earlier work
healthy female subjects [2] = assay: VAS pain; format: in vivo, human; conditions: all subjects
[3] = Plasma pharmacokinetics after multiple ascending once daily doses; format: in vivo, human
patients with PNP = conditions: cited from earlier work
rats = conditions: ref unpublished data; cited from earlier work
healthy female subjects [4] = assay: Laser evoked potentials; format: in vivo, human; conditions: for Dose at which the maximum postdose response was attained: LEP N2-P2 PtP, once daily multiple dosing; for Time to maximum response (percentage change in LEP N2-P2 PtP amplitudes): after dosing
healthy female subjects [5] = assay: Safety and tolerability; format: in vivo, human

CCCCC/C=C\C/C=C\C/C=C\C/C=C\CCCC(=O)NCCO [AEA, N-arachidonoyl-ethanolamine]
Potency toward cannabinoid receptors relative to that toward TRPV1 receptors [1]: about 10 times

O=C(Nc1ccccc1)C1CCN(C(=O)Oc2cccnc2)CC1 [ASP8477]
Day 14 predose response for VAS pain scores, % of the maximum response (healthy female subjects [2]): 23% | Day 21 predose response for VAS pain scores, % of the maximum response (healthy female subjects [2]): 4% | Mean difference vs placebo in VAS pain score (healthy female subjects [2]; all doses): –2.55% | Mean VAS pain score (healthy female subjects [2]; all three doses (overall)): 42.23% | Dose proportionality of PK parameters ([3]; between 20 mg and 100 mg, multiple ascending doses): more than dose-proportional | Absorption following oral dosing ([3]; oral dosing): rapidly absorbed | Median tmax (range) ([3]; oral dosing, all doses): 2.1 to 4.1 h | Difference between ASP8477 and placebo (patients with PNP; double-blind randomized withdrawal period): no difference | Patients reporting a reduction of ≥30% in their pain (patients with PNP; single-blind period, 30 mg BID): ~60% | Effects in nonclinical toxicity studies (rats): effects observed on male fertility | Mean Difference (95% CI) vs placebo, LEP N2-P2 PtP amplitude, secondary analysis (healthy female subjects [4]; 100 mg day 21 vs placebo day 21, all subjects, session as a random effect): −1.58 (−3.30 to 0.15) µV | Mean Difference (95% CI) vs placebo, LEP N2-P2 PtP amplitude, primary analysis (healthy female subjects [4]; 100 mg day 21 vs placebo day 21, all subjects, session as replications): −1.58 (−3.30 to 0.14) µV | LS mean PtP (SE), LEP N2-P2 PtP amplitude, secondary analysis (healthy female subjects [4]; 100 mg, day 21, all subjects, linear mixed regression model with session as a random effect): 29.66 (2.80) µV | LS mean PtP (SE), LEP N2-P2 PtP amplitude, primary analysis (healthy female subjects [4]; 100 mg, day 21, all subjects, linear mixed regression model with session as replications): 28.31 (2.75) µV | Dose at which the maximum postdose response was attained (healthy female subjects [4]): 20 mg | Time to maximum response (percentage change in LEP N2-P2 PtP amplitudes) (healthy female subjects [4]): approximately one to four | Day 14 predose response for LEP N2-P2 PtP amplitudes, % of the maximum response (healthy female subjects [4]; all subjects): 4% and 8% | Day 21 predose response for LEP N2-P2 PtP amplitudes, % of the maximum response (healthy female subjects [4]; all subjects): 19% | LEP N2-P2 PtP cumulative magnitude of response (AUC) (healthy female subjects [4]; all subjects): approximately 200 | LEP N2-P2 PtP amplitudes, overall mean (healthy female subjects [4]; all subjects, across all doses): 28.51 µV | Mean difference vs placebo in LEP N2-P2 PtP amplitudes (healthy female subjects [4]; all subjects, across all doses): –1.41 µV | Day 21 predose effect for LEP N2-P2 PtP amplitudes, % of the maximum achievable effect (healthy female subjects [4]; capsaicin-positive subgroup): 40% | LEP N2-P2 PtP cumulative magnitude of response (AUC) (healthy female subjects [4]; capsaicin-positive subgroup, day 7): approximately 400 | LEP N2-P2 PtP cumulative magnitude of response (AUC) (healthy female subjects [4]; capsaicin-positive subgroup, day 14): ~420 | LEP N2-P2 PtP cumulative magnitude of response (AUC) (healthy female subjects [4]; capsaicin-positive subgroup, day 21): ~470 | Tolerability (healthy female subjects [5]; ascending doses of 20 mg, 60 mg, and 100 mg once daily): well tolerated | Subjects reporting a treatment-emergent adverse event (TEAE) (healthy female subjects [5]; during treatment, all doses): 83% | TEAE disorientation, subjects (healthy female subjects [5]; during treatment, all doses): 8% | TEAE disturbance in attention and illusion, subjects (healthy female subjects [5]; during treatment, all doses): 13% | TEAE dry mouth, subjects (healthy female subjects [5]; during treatment, all doses): 21% | TEAE fatigue, subjects (healthy female subjects [5]; during treatment, all doses): 29% | TEAE headache, subjects (healthy female subjects [5]; during treatment, all doses): 29% | TEAE memory impairment, subjects (healthy female subjects [5]; during treatment, all doses): 13% | TEAE vertigo, subjects (healthy female subjects [5]; during treatment, all doses): 29%

CNCC[C@H](Oc1cccc2ccccc12)c1cccs1 [duloxetine, reference compound]
Day 14 predose response for VAS pain scores, % of the maximum response (healthy female subjects [2]): 17% | Day 21 predose response for VAS pain scores, % of the maximum response (healthy female subjects [2]): 10% | PK parameters of 60 mg compared with 30 mg ([3]; once daily for seven days): approximately doubled | Dose at which the maximum postdose response was attained (healthy female subjects [4]): 30 mg | Time to maximum response (percentage change in LEP N2-P2 PtP amplitudes) (healthy female subjects [4]): approximately one to four | Day 14 predose response for LEP N2-P2 PtP amplitudes, % of the maximum response (healthy female subjects [4]; all subjects): 26% | Day 21 predose response for LEP N2-P2 PtP amplitudes, % of the maximum response (healthy female subjects [4]; all subjects): 44% | LEP N2-P2 PtP amplitudes, overall mean (healthy female subjects [4]; all subjects, across all doses): 24.71 µV | Mean difference duloxetine vs ASP8477 in LEP N2-P2 PtP amplitudes (healthy female subjects [4]; all subjects, across all doses): –3.80 µV | Mean difference vs placebo in LEP N2-P2 PtP amplitudes (healthy female subjects [4]; all subjects, across all doses): –5.21 µV | Day 14 predose effect for LEP N2-P2 PtP amplitudes, % of the maximum achievable effect (healthy female subjects [4]; capsaicin-positive subgroup): 40% | Day 21 predose effect for LEP N2-P2 PtP amplitudes, % of the maximum achievable effect (healthy female subjects [4]; capsaicin-positive subgroup): around 40% | Time to maximum effect (healthy female subjects [4]; postdose): five | TEAE fatigue, subjects (healthy female subjects [5]; during treatment, all doses): 29% | TEAE nausea, subjects (healthy female subjects [5]; during treatment, all doses): 29%
